Patent publication US20230210795A1, “3-HYDROXYBUTYRIC-ACID-CONTAINING OIL AND FAT COMPOSITION” (OSAKA GAS CO., LTD., priority 2020, published 2023)

Test: Deliquescence test: 1 g of composition left uncovered in a petri dish at 25° C. for 1 week, appearance and weight change evaluated
Assay type: physicochemical
Design: key: High fluidity and silky smoothness.; Δ: Slightly moist but highly fluid powder.; x: Agglomeration or deliquescence occurred
Details: for Appearance after 1 week / Appearance after 1 day: left uncovered at 25° C.
Method: R-3HB crystals or R-3HB salts (3HB-Na: sodium salt, 3HB-K: potassium salt) and oil and fat particles were weighed in the proportions shown in Table 2 below. Each mixture thereof was milled for 3 seconds five times in a mill mixer (IJM-M800-W, produced by Iris Ohyama Inc.). 1 g of each of the 3HB-containing compositions obtained in the Examples and Comparative Examples was weighed in petri dishes and left uncovered in a room adjusted to 25° C. for 1 week. The appearance and weight change of each composition was then evaluated. As comparative examples, combinations of commonly used silicon dioxide or calcium silicate and fat and/or oil were evaluated. […] The evaluation was made according to the following criteria.
o: High fluidity and silky smoothness. Δ: Slightly moist but highly fluid powder. x: Agglomeration or deliquescence occurred.

SMILES | Appearance immediately after milling | Appearance after 1 week | Appearance after 1 day
CC(O)CC(=O)O (stereo not drawn) [Comp. Ex. 1, 3-Hydroxybutyric acid] | Δ | x (Partial | x (Partial
CC(O)CC(=O)[O-].[K+] (stereo not drawn) [Comp. Ex. 2] | Δ | x | x
CC(O)CC(=O)[O-].[Na+] (stereo not drawn) [Comp. Ex. 3] | ∘ | x | x
